From US6344487B1, “Treatment of insomnia” (priority 2000, dated 2002)
Where a name gives a salt, the structure may show the parent alone.

What was measured:
Assay type in all cases: in vivo
Settings in all cases: single patient
[1] = tested on: insomnia, possibly due to a desynchronization of circadian rhythms ("jet-lag"); experiment: Treatment of business traveler with insomnia possibly due to desynchronization of circadian rhythms (jet-lag), follow up
Description: (§1) Administration of the compounds should take place within about one hour before bedtime. Again, the onset of the sedative effect will vary with the individual and the dosage prescribed.
The patient, a business traveler, suffers from insomnia, possibly due to a desynchronization of circadian rhythms (“jet-lag”). At the time of consultation, they have normal affect with no depression, anxiety or substance overuse. They are prescribed mirtazapine 10 mg hs.
The patient, a business traveler, suffers from insomnia, possibly due to a desynchronization of circadian rhythms (“jet-lag”). At the time of consultation, they have normal affect with no depression, anxiety or substance overuse. They are prescribed mirtazapine 7.5 mg hs.
The patient, a business traveler, suffers from insomnia, possibly due to a desynchronization of circadian rhythms (“jet-lag”). At the time of consultation, they have normal affect with no depression, anxiety or substance overuse. They are prescribed mirtazapine 5 mg hs.
The patient, a business traveler, suffers from insomnia, possibly due to a desynchronization of circadian rhythms (“jet-lag”). At the time of consultation, they have normal affect with no depression, anxiety or substance overuse. They are prescribed mirtazapine 2 mg hs.
The patient, a business traveler, suffers from insomnia, possibly due to a desynchronization of circadian rhythms (“jet-lag”). At the time of consultation, they have normal affect with no depression, anxiety or substance overuse. They are prescribed nortriptyline 10 mg hs.
The patient, a business traveler, suffers from insomnia, possibly due to a desynchronization of circadian rhythms (“jet-lag”). At the time of consultation, they have normal affect with no depression, anxiety or substance overuse. They are prescribed nortriptyline 7.5 mg hs.
The patient, a business traveler, suffers from insomnia, possibly due to a desynchronization of circadian rhythms (“jet-lag”). At the time of consultation, they have normal affect with no depression, anxiety or substance overuse. They are prescribed nortriptyline 5 mg hs.
The patient, a business traveler, suffers from insomnia, possibly due to a desynchronization of circadian rhythms (“jet-lag”). At the time of consultation, they have normal affect with no depression, anxiety or substance overuse. They are prescribed nortriptyline 2 mg hs.

[2] = tested on: maintenance insomnia (non-chronic); experiment: Treatment of patient with maintenance insomnia (non-chronic), follow up
Description: as §1
The patient suffers from maintenance insomnia (non-chronic) At the time of consultation, they have normal affect with no depression, anxiety or substance overuse. They are prescribed mirtazapine 10 mg hs.
The patient suffers from maintenance insomnia (non-chronic) At the time of consultation, they have normal affect with no depression, anxiety or substance overuse. They are prescribed mirtazapine 7.5 mg hs.
The patient suffers from maintenance insomnia (non-chronic) At the time of consultation, they have normal affect with no depression, anxiety or substance overuse. They are prescribed mirtazapine 5 mg hs.
The patient suffers from maintenance insomnia (non-chronic) At the time of consultation, they have normal affect with no depression, anxiety or substance overuse. They are prescribed mirtazapine 2 mg hs.
The patient suffers from maintenance insomnia (non-chronic). At the time of consultation, they have normal affect with no depression, anxiety or substance overuse. They are prescribed nortriptyline 10 mg hs.
The patient suffers from maintenance insomnia (non-chronic). At the time of consultation, they have normal affect with no depression, anxiety or substance overuse. They are prescribed nortriptyline 7.5 mg hs.
The patient suffers from maintenance insomnia (non-chronic) At the time of consultation, they have normal affect with no depression, anxiety or substance overuse. They are prescribed nortriptyline 5 mg hs.
The patient suffers from maintenance insomnia (non-chronic) At the time of consultation, they have normal affect with no depression, anxiety or substance overuse. They are prescribed nortriptyline 2 mg hs.

[3] = tested on: onset insomnia (non-chronic); experiment: Treatment of patient with onset insomnia (non-chronic), follow up
Description: as §1
The patient suffers from onset insomnia (non-chronic). At the time of consultation, they have normal affect with no depression, anxiety or substance overuse. They are prescribed mirtazapine 10 mg hs.
The patient suffers from onset insomnia (non-chronic). At the time of consultation, they have normal affect with no depression, anxiety or substance overuse. They are prescribed mirtazapine 7.5 mg hs.
The patient suffers from onset insomnia (non-chronic). At the time of consultation, they have normal affect with no depression, anxiety or substance overuse. They are prescribed mitazapine 5 mg hs.
The patient suffers from onset insomnia (non-chronic). At the time of consultation, they have normal affect with no depression, anxiety or substance overuse. They are prescribed mirtazapine 2 mg hs.
The patient suffers from onset insomnia (non-chronic). At the time of consultation, they have normal affect with no depression, anxiety or substance overuse. They are prescribed nortriptyline 10 mg hs.
The patient suffers from onset insomnia (non-chronic). At the time of consultation, they have normal affect with no depression, anxiety or substance overuse. They are prescribed nortriptyline 7.5 mg hs.
The patient suffers from onset insomnia (non-chronic). At the time of consultation, they have normal affect with no depression, anxiety or substance overuse. They are prescribed nortriptyline 5 mg hs.
The patient suffers from onset insomnia (non-chronic). At the time of consultation, they have normal affect with no depression, anxiety or substance overuse. They are prescribed nortriptyline 2 mg hs.

[4] = tested on: maintenance insomnia (chronic); experiment: Treatment of patient with maintenance insomnia (chronic), follow up
Description: as §1
The patient suffers from maintenance insomnia (chronic). At the time of consultation, they have normal affect with no depression, anxiety or substance overuse. They are prescribed mirtazapine 10 mg hs.
The patient suffers from maintenance insomnia (chronic). At the time of consultation, they have normal affect with no depression, anxiety or substance overuse. They are prescribed mirtazapine 7.5 mg hs.
The patient suffers from maintenance insomnia (chronic). At the time of consultation, they have normal affect with no depression, anxiety or substance overuse. They are prescribed mirtazapine 5 mg hs.
The patient suffers from maintenance insomnia (chronic). At the time of consultation, they have normal affect with no depression, anxiety or substance overuse. They are prescribed mirtazapine 2 mg hs.
The patient suffers from maintenance insomnia (chronic). At the time of consultation, they have normal affect with no depression, anxiety or substance overuse. They are prescribed nortriptyline 10 mg hs.
The patient suffers from maintenance insomnia (chronic). At the time of consultation, they have normal affect with no depression, anxiety or substance overuse. They are prescribed nortriptyline 7.5 mg hs.
The patient suffers from maintenance insomnia (chronic). At the time of consultation, they have normal affect with no depression, anxiety or substance overuse. They are prescribed nortriptyline 5 mg hs.
The patient suffers from maintenance insomnia (chronic). At the time of consultation, they have normal affect with no depression, anxiety or substance overuse. They are prescribed nortriptyline 2 mg hs.

onset insomnia (chronic) = experiment: Treatment of patient with onset insomnia (chronic), follow up
Description: as §1
The patient suffers from onset insomnia (chronic). At the time of consultation, they have normal affect with no depression, anxiety or substance overuse. They are prescribed mirtazapine 10 mg hs.
The patient suffers from onset insomnia (chronic). At the time of consultation, they have normal affect with no depression, anxiety or substance overuse. They are prescribed mirtazapine 7.5 mg hs.
The patient suffers from onset insomnia (chronic). At the time of consultation, they have normal affect with no depression, anxiety or substance overuse. They are prescribed mitazapine 5 mg hs.
The patient suffers from onset insomnia (chronic). At the time of consultation, they have normal affect with no depression, anxiety or substance overuse. They are prescribed mirtazapine 2 mg hs.
The patient suffers from onset insomnia (chronic). At the time of consultation, they have normal affect with no depression, anxiety or substance overuse. They are prescribed nortriptyline 10 mg hs.
The patient suffers from onset insomnia (chronic). At the time of consultation, they have normal affect with no depression, anxiety or substance overuse. They are prescribed nortriptyline 7.5 mg hs.
The patient suffers from onset insomnia (chronic). At the time of consultation, they have normal affect with no depression, anxiety or substance overuse. They are prescribed nortriptyline 5 mg hs.
The patient suffers from onset insomnia (chronic). At the time of consultation, they have normal affect with no depression, anxiety or substance overuse. They are prescribed nortriptyline 2 mg hs.

Row | Compound | relief of insomnia at follow up ([1]; 2 mg hs) | relief of insomnia at follow up ([1]; 5 mg hs) | relief of insomnia at follow up ([1]; 7.5 mg hs) | relief of insomnia at follow up ([1]; 10 mg hs) | relief of insomnia at follow up ([2]; 2 mg hs) | relief of insomnia at follow up ([2]; 5 mg hs) | relief of insomnia at follow up ([2]; 7.5 mg hs) | relief of insomnia at follow up ([2]; 10 mg hs) | relief of onset insomnia at follow up ([3]; 2 mg hs) | relief of onset insomnia at follow up ([3]; 5 mg hs) | relief of onset insomnia at follow up ([3]; 7.5 mg hs) | relief of onset insomnia at follow up ([3]; 10 mg hs) | relief of insomnia at follow up ([4]; 2 mg hs) | relief of insomnia at follow up ([4]; 5 mg hs) | relief of insomnia at follow up ([4]; 7.5 mg hs) | relief of insomnia at follow up ([4]; 10 mg hs) | relief of onset insomnia at follow up (onset insomnia (chronic); 2 mg hs) | relief of onset insomnia at follow up (onset insomnia (chronic); 5 mg hs) | relief of onset insomnia at follow up (onset insomnia (chronic); 7.5 mg hs) | relief of onset insomnia at follow up (onset insomnia (chronic); 10 mg hs)
1 | CNCCC=C1c2ccccc2CCc2ccccc21 [nortriptyline, 1 propanamine,3-(10,11-dihydro-5H-dibenzo[a,d]cyclohepten-5-ylidene)-N-methyl-, hydrochloride] | relieves the insomnia and has their sleeping well | relieves the insomnia and has them sleeping well | relieves the insomnia and has them sleeping well | relieves the insomnia and has their sleeping well | relieves the insomnia and has their sleeping well | relieves the insomnia and has them sleeping well | relieves the insomnia and has them sleeping well | relieves the insomnia and has their sleeping well | relieves the onset insomnia and has their sleeping well | relieves the onset insomnia and has them sleeping well | relieves the onset insomnia and has them sleeping well | relieves the onset insomnia and has their sleeping well | relieves the insomnia and has their sleeping well | relieves the insomnia and has them sleeping well | relieves the insomnia and has them sleeping well | relieves the insomnia and has their sleeping well | relieves the onset insomnia and has their sleeping well | relieves the onset insomnia and has them sleeping well | relieves the onset insomnia and has them sleeping well | relieves the onset insomnia and has their sleeping well
2 | CN1CCN2c3ncccc3Cc3ccccc3C2C1 (stereo not shown) [mirtazapine, 1,2,3,4,10,14b-hexahydro-2-methylpyrazino [2,1-a]pyrido [2,3-c]benzazepine] | relieves the insomnia and has them sleeping well | relieves the insomnia and has them sleeping well | relieves the insomnia and has them sleeping well | relieves the insomnia and has their sleeping well | relieves the insomnia and has them sleeping well | relieves the insomnia and has them sleeping well | relieves the insomnia and has them sleeping well | relieves the insomnia and has their sleeping well | relieves the onset insomnia and has them sleeping well | relieves the onset insomnia and has them sleeping well | relieves the onset insomnia and has them sleeping well | relieves the onset insomnia and has their sleeping well | relieves the insomnia and has them sleeping well | relieves the insomnia and has them sleeping well | relieves the insomnia and has them sleeping well | relieves the insomnia and has their sleeping well | relieves the onset insomnia and has them sleeping well | relieves the onset insomnia and has them sleeping well | relieves the onset insomnia and has them sleeping well | relieves the onset insomnia and has their sleeping well
